Experimental data: article PMC8121815 (Nature Communications, 2021)

Key:
[1] = biological target: hTOM70/N-peptide complex (Homo sapiens, UniProt O94826); assay type: binding
[2] = biological target: T1, unliganded hTOM70 (cytoplasmic segment of human TOM70) (human); assay: ITC
T1 sequence (O94826 whole entry, looked up): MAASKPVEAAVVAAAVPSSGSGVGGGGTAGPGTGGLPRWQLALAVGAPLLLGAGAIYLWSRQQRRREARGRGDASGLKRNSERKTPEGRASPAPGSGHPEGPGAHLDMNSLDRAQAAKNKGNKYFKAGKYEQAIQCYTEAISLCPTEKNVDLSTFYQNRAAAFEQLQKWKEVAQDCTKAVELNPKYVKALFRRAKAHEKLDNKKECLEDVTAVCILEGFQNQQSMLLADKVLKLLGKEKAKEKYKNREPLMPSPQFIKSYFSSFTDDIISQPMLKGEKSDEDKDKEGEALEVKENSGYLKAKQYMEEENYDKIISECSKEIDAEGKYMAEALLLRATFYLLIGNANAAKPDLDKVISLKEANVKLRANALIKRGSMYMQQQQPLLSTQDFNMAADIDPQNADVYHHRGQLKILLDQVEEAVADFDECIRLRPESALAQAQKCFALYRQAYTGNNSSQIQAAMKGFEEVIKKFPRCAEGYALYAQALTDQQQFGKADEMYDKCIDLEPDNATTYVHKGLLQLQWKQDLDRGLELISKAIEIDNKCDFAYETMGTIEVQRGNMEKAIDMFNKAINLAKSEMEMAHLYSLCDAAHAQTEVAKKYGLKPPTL

[3] = biological target: T2, SARS-CoV-2 orf9b with an N-terminal His-tag, co-expressed with hTOM70 (SARS-CoV-2, UniProt P0DTD2 1-97); assay: SEC + AUC; conditions: both partners purified
T2 construct: also called intact orf9b
T2 sequence (P0DTD2 whole entry): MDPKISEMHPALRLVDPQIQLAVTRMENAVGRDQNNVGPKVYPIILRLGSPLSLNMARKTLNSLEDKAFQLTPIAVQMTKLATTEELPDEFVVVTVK

CC[C@H](C)[C@H](N)C(=O)N[C@H](C(=O)N[C@@H](CC(C)C)C(=O)N[C@@H](CCCNC(=N)N)C(=O)N[C@@H](CC(C)C)C(=O)NCC(=O)N[C@@H](CO)C(=O)N1CCC[C@H]1C(=O)N[C@@H](CC(C)C)C(=O)N[C@@H](CO)C(=O)N[C@@H](CC(C)C)C(=O)N[C@@H](CC(N)=O)C(=O)N[C@@H](CCSC)C(=O)N[C@@H](C)C(=O)N[C@@H](CCCNC(=N)N)C(=O)N[C@@H](CCCCN)C(=O)N[C@H](C(=O)N[C@@H](CC(C)C)C(=O)N[C@@H](CC(N)=O)C(=O)N[C@@H](CO)C(=O)N[C@@H](CC(C)C)C(=O)N[C@@H](CCC(=O)O)C(=O)N[C@@H](CC(=O)O)C(=O)N[C@@H](CCCCN)C(=O)N[C@@H](C)C(=O)N[C@@H](Cc1ccccc1)C(=O)N[C@@H](CCC(N)=O)C(=O)O)[C@@H](C)O)[C@@H](C)CC [C-peptide]
ΔH, enthalpy variation [1]: 4.1 ± 0.1 kJ/mol | ΔS, entropy variation [1]: 32.5

C-peptide (SARS-CoV-2 orf9b core sequence 44-70) (from UniProt P0DTD2 44-70)
dH [2]: 11.1 kJ/mol

B1: hTOM70 ΔN2 (106-608), co-expressed with orf9b (domain or fragment, human, UniProt O94826 106-608, looked up)
chain: LDMNSLDRAQAAKNKGNKYFKAGKYEQAIQCYTEAISLCPTEKNVDLSTFYQNRAAAFEQLQKWKEVAQDCTKAVELNPKYVKALFRRAKAHEKLDNKKECLEDVTAVCILEGFQNQQSMLLADKVLKLLGKEKAKEKYKNREPLMPSPQFIKSYFSSFTDDIISQPMLKGEKSDEDKDKEGEALEVKENSGYLKAKQYMEEENYDKIISECSKEIDAEGKYMAEALLLRATFYLLIGNANAAKPDLDKVISLKEANVKLRANALIKRGSMYMQQQQPLLSTQDFNMAADIDPQNADVYHHRGQLKILLDQVEEAVADFDECIRLRPESALAQAQKCFALYRQAYTGNNSSQIQAAMKGFEEVIKKFPRCAEGYALYAQALTDQQQFGKADEMYDKCIDLEPDNATTYVHKGLLQLQWKQDLDRGLELISKAIEIDNKCDFAYETMGTIEVQRGNMEKAIDMFNKAINLAKSEMEMAHLYSLCDAAHAQTEVAKKYGLKPPTL
notes: also called TOM70 (106-608); cytosolic domain of hTOM70
stoichiometry N [3]: 1
